As a reminder, the pIC50 is −log10 of the IC50, conventionally taken in molar units.

The values that follow come from patent publication US5658880A, “Sialic acid/fucose based medicaments” (Glycomed Incorporated, priority 1994, dated 1997).

pIC50: −log10 of the molar value.

This test concerns L-selectin. The test is described as follows: ELISA: inhibition of L-selectin-IgG chimera binding to 2,3 sLe^x glycolipid. Also on record: species or system human. The text has this:
An ELISA assay is preferably used that employs recombinant fusion proteins composed of extracellular portions of the human selectins joined to human immunoglobulin heavy chain CH3, CH2, and hinge regions. See, for example, Walz et al., Science (1990) 250:1132; Aruffo et al., Cell (1991) 67:35; Aruffo et al., Proc. Natl. Acad. Sci. USA. (1992) 89:2292. The assay is well known in the art, and generally consists of the following three steps:
I. 2,3 sLe^x glycolipid (25 picomole/well) was transferred into microtiter wells as solutions and then evaporated off. Excess, which remained unattached, was washed off with water. The wells were then blocked with 5% BSA at room temperature for an hour and then washed with PBS containing 1 mM calcium.
II. Preparation of "multivalent" receptor of the Selectin-lgG chimera was carried out by combining the respective chimera (1 μg/mL) with biotin labelled goat F(ab')2 anti-human IgG (Fc specific) and streptavidin-alkaline phosphatase diluted 1:1000 in 1% BSA-PBS (1 mM calcium) and incubating at 37° C. for 15 min. This allowed the soluble multivalent receptor complex to form. III. Potential inhibitors such as the compounds of formula I or II were allowed to react with the soluble receptor at 37° C. for 45 min. This test assumes that optimal binding, between the soluble phase receptor complex and the inhibitor (non natural ligand), would have occurred within this time frame. This solution was then placed in the microtiter wells that were prepared in step I. The plate was incubated at 37° C. for 45 minutes to allow the soluble receptor to bind to its natural ligand. In the presence of a strong inhibitor only a few receptors should be free to bind to the microtiter plate coated with the natural ligand.
The positive control is the signal produced by the soluble receptor when it is allowed to react with 2,3 sLe^x glycolipid in the microtiter wells in the absence of any inhibitor. This positive control was considered 100% binding. The signal produced by the receptor that had been previously treated with an inhibitor (recorded as O.D.), was divided by the signal produced by the positive control and multiplied by 100 to calculate the % receptor bound to the well in the presence of the inhibitor. The reciprocal of this number is the % inhibition.
An ELISA assay was employed that uses recombinant fusion proteins composed of extracellular portions of the human selectins joined to human immunoglobulin heavy chain CH3, CH2, and hinge regions. See, for example, Walz et al., Science (1990) 250:1132; Aruffo et al., Cell (1991) 67:35; Aruffo et al., Proc. Natl. Acad. Sci. USA (1992) 89:2292. The assay is well known in the art, and generally consists of the following three steps:
II. Preparation of "multivalent" receptor of the Selectin-IgG chimera was carried out by combining the respective chimera 1 μg/ml) with biotin labelled goat F(ab')2 anti-human IgG (Fc specific) and streptavidin-alkaline phosphatase diluted 1:1000 in 1% BSA-PBS (1 mM calcium) and incubating at 37° C. for 15 min. This allowed the soluble multivalent receptor complex to form.
III. Potential inhibitors such as compounds of formula I or II were allowed to react with the soluble receptor at 37° C. for 45 min. This test assumes that optimal binding, between the soluble phase receptor complex and the inhibitor (non natural ligand), would have occurred within this time frame. This solution was then placed in the microtiter wells that were prepared in step I. The plate was incubated at 37° C. for 45 minutes to allow the soluble receptor to bind to its natural ligand. In the presence of a strong inhibitor only a few receptors should be free to bind to the microtiter plate coated with the natural ligand.
The positive control is the signal produced by the soluble receptor when it is allowed to react with 2,3 sLe^x glycolipid in the microtiter wells in the absence of any inhibitor. This was considered 100% binding. […]

With `CC(=O)NC1C(O)CC(OCCCCCCOC2OC(C)C(O)C(O)C2O)(C(=O)O)OC1C(O)C(O)CO` [Compound 7, 1-O-α-Neu5Ac-(6-O-α-L-Fucopyranosyl)-Hexane], the “inhibition of L-selectin binding to 2,3 sLe^x glycolipid” value (FIG. 5 and FIG. 6, result in words) is listed as “inhibit L-selectin binding in a concentration dependent manner”. Also, the pIC50 (inhibition of binding to 2,3 sLex glycolipid) was 2.52 to 3.00.
